Source: ChEMBL document CHEMBL3044737, “Synthesis of biotinylated 18-glycyrrhetinic acid and its effect on tumor cells activity” (Med Chem Res, 2009)
Activity calls are given as the source filed them. No cut-off for these calls is given here.

Assays:
Bel-7402 [1] = assay: Cytotoxicity against Homo sapiens (human) Bel7402 cells assessed as reduction of cell number after 12 hr by MTT assay; type: functional, cell-based; settings: Bel-7402, 12 h
[2] = Stability of the compound in RPMI-1640 medium at 100 uM after 6 days; type: physicochemical; settings: 144 h
B16 [3] = assay: Cytotoxicity against Mus musculus (mouse) B16 cells assessed as reduction of cell number after 12 hr by MTT assay; type: functional, cell-based; settings: B16, 12 h
B16 [4] = assay: Cytotoxicity against Mus musculus (mouse) B16 cells assessed as reduction of cell number at 50 umol/L after 12 hr by MTT assay; type: functional, cell-based
B16 [5] = assay: Cytotoxicity against Mus musculus (mouse) B16 cells assessed as reduction of cell number up to 250 umol/L after 12 hr by MTT assay; type: functional, cell-based
[6] = Stability of the compound in water at 100 uM after 24 hr; type: physicochemical; settings: buffer
Bel-7402 [7] = assay: Cytotoxicity against Homo sapiens (human) Bel7402 cells assessed as reduction of cell number at 50 umol/L after 12 hr by MTT assay; type: functional, cell-based
Bel-7402 [8] = assay: Cytotoxicity against Homo sapiens (human) Bel7402 cells assessed as reduction of cell number up to 250 umol/L after 12 hr by MTT assay; type: functional, cell-based

Which IC50 (Bel-7402 [1]) does the source give for `CC1(C)[C@@H](O)CC[C@]2(C)[C@H]3C(=O)C=C4[C@@H]5C[C@@](C)(C(=O)NCCCCCCNC(=O)CCCC[C@@H]6SC[C@@H]7NC(=O)N[C@@H]76)CC[C@]5(C)CC[C@@]4(C)[C@]3(C)CC[C@@H]12` here?
The IC50 was 175 µM.

And the Stability [2]?
The Stability was “Stable”.

What about the IC50 (B16 [3]) of the same compound?
Its IC50 is 170 µM.

And the Activity (B16 [4])?
Its Activity is “inactive”.

What about the Activity (B16 [5]) of the same compound?
Its Activity is “Active”.

And the Stability [6]?
Its Stability is “Stable”.

And the Activity (Bel-7402 [7])?
The Activity was “inactive”.

What about the Activity (Bel-7402 [8]) of the same compound?
The Activity was “Active”.

What does the source list for `CC1(C)[C@@H](O)CC[C@]2(C)[C@H]3C(=O)C=C4[C@@H]5C[C@@](C)(C(=O)O)CC[C@]5(C)CC[C@@]4(C)[C@]3(C)CC[C@@H]12` [ENOXOLONE]?
Stability [2]: Stable; Activity (B16 [4]): inactive; Activity (B16 [5]): Active; Stability [6]: Unstable; Activity (Bel-7402 [7]): inactive; Activity (Bel-7402 [8]): Active
